Experimental data: patent US20120258170A1, “PHARMACEUTICAL CO-CRYSTALS OF QUERCETIN” (Nutracryst Therapeutics Private Limited, priority 2009, published 2012)
Entries after “also recorded” stand apart in the source; their conditions may differ. Where a name gives a salt, the structure may show the parent alone. Read-outs that look alike come from different tables or passages of the source.

Assays:
[1] = tested on: db/db mice; assay: Chronic effect on plasma insulin levels in db/db mice; assay type: in vivo; design: % Reduction in plasma insulin / % Reduction@ in plasma insulin: concentration or dose not given beside the values; details: for % Reduction@ in plasma insulin: 21th day, calculated after adjusting for control group change; for 21th day insulin: 21 days 300 mg/kg once daily, 4 hr fasting, predosing; for % Reduction in plasma insulin: basal vs 21th day; for % Reduction in plasma insulin / Basal insulin: Mean ± SEM; for Basal insulin: before treatment
Experimental: (§1) Kits: Plasma glucose, cholesterol and triglyceride were measured using Dade Behring auto analyzer. Plasma insulin values measured using Rat/mouse insulin ELISA kit (Millipore, lot no 16006280). Tail cut method plasma glucose values measured using Contour TS glucometer strips (Lot WK8MD3E32A).
(§2) Compounds and Vehicle: All test-compounds were formulated in tween CMC (10% of 2.5% tween 80+90% of 0.25% CMC) and prepared daily about 1 hr before administration. Animals were dosed for 21 days through oral gavage at dose volume of 10 ml/kg body weight.
(§3) Animals were dosed daily at around 10 AM to 11 AM with corresponding test compounds/vehicle at a volume of 10 ml/kg of body weight. Body weight, water intake and food intake was measured daily. After 14 days treatment plasma profile (PG, TG & TC) was measured in 4 hrs fasted animals. On that day animals were dosed post bleeding after keeping feed at 4 PM. After 21 days treatment plasma profile (PG, TG & TC) was measured in 4 hrs fasted animals. After bleeding, animals were administered with test compounds/vehicle and plasma glucose was measured 3 hrs post dosing with Glucometer. Immediately animals were provided with feed.
(§4) Blood samples from r.o.p bleeding were collected in micro centrifuge tubes containing 5 ul of EDTA Na ([…]). Plasma separated by centrifuging blood samples at 6000 rpm at 40 C for 5 minutes. Plasma glucose, total cholesterol and triglyceride were measured using Dade Bhering auto analyser. Plasma insulin was measured (in duplicate samples), using Millipore mouse/rat insulin ELISA kit.
(§5) The percent reduction in plasma profile parameters were calculated using the formula 1−(tt/tc)/bt/bc)×100; where tt: test day treated group mean value of the parameter; tc: test day control group mean value of the parameter; bc: Basal Control group mean value; bt: Basal treated group mean value.
(§6) Statistics were applied using One-Way ANOVA followed by Dunnett's test using sigma stat software.

[2] = tested on: db/db mice; assay: Chronic effect on plasma profile (PG, TC, TG), 4 hrs fasted, before dosing, in db/db mice; assay type: in vivo; details: for 14th day PG / 14th day TC / 14th day TG: 14 days 300 mg/kg once daily per oral, pre dosing; for 14th day PG / 14th day TC / 14th day TG / 21st day PG / 21st day TC / 21st day TG: 4 hr fasting; for % Red PG, 14th day / % Red TC, 14th day / % Red TG, 14th day: 14 days 300 mg/kg once daily; for % Red PG, 14th day / % Red TC, 14th day / % Red TG, 14th day / % Red PG, 21st day: adjusted for control and basal; for 21st day PG / 21st day TC / 21st day TG: 21 days 300 mg/kg once daily per oral, predosing; for % Red PG, 21st day / % Red TC (plasma cholesterol), 21st day / % Red TG (plasma triglyceride), 21st day: 21 days 300 mg/kg once daily; for % Red TC (plasma cholesterol), 21st day / % Red TG (plasma triglyceride), 21st day: post 4 hrs fasting, without dosing on the day; for Basal PG / Basal TC / Basal TG: 4 hrs fasted, before treatment, Mean ± SEM; for 4 hrs fasting plasma glucose levels after 21 days treatment (in words): chronic treatment 21 days
Experimental: (§7) Db/db mice were acclimatized to dosing and exposed to tail cut and r.o.p bleeding. Animals were grouped based on plasma glucose, triglyceride and cholesterol values. Acute effect of test compound on plasma glucose levels determined 3 hrs post dosing followed by administration of test compound for 21 days. After 14 days treatment, 4 hrs fasting plasma glucose levels were measured. After 21 days treatment, 4 hrs fasting plasma glucose levels were measured followed by test compound administration and measurement of plasma glucose levels 3 hrs post dosing.
as §1, §2, §3, §4, §5, §6

[3] = tested on: db/db mice; assay: Acute effect of test compounds on plasma glucose levels in db/db mice; assay type: in vivo; details: for % Reduction in plasma glucose (acute): 0 hr vs 3 hr post single dose 300 mg/kg per oral; for % Reduction in plasma glucose (acute) / 3 Hr plasma glucose / 0 Hr plasma glucose: Mean ± SEM; for 3 Hr plasma glucose: 3 hrs post single dose 300 mg/kg per oral; for 0 Hr plasma glucose: 4 hrs fasted, before dosing, 300 mg/kg per oral group; for plasma glucose levels 3 hrs post dosing with single dose (in words): acute administration, 300 mg/kg, vs control group
Experimental: as §7, §1, §2
On the day of initiating study animals were fasted for 4 hrs and plasma glucose was measured with Glucometer by tail cut method. Animals were dosed with test compound/vehicle according to their body weight and 3 hrs post dosing plasma glucose levels were measured with Glucometer Immediately animals were provided with measured amount of feed.
Acute effect percent reduction in PG was calculated for each animal using the formula
{(0 hr PG−test hr PG)/0 hr PG}×100
as §6

[4] = tested on: db/db mice; assay: Chronic effect (21 days) on plasma glucose 3 hrs post dosing in db/db mice; assay type: in vivo; details: for % Red PG, 21th day 3 hr post dosing / 21th day 3 hr post dosing PG: 21 days 300 mg/kg once daily, then dose; for 21th day 3 hr post dosing PG: Mean ± SEM; for plasma glucose levels 3 hrs post dosing after 21 days treatment followed by administration on day 21 (in words): 300 mg/kg
Experimental: as §7, §1, §2, §3, §5, §6

[5] = Chronic effect on body weight in db/db mice; assay type: in vivo; details: Mean ± SEM; for Final day Body weight: after 21 days 300 mg/kg once daily; for % Increase in body weight: basal to final day
Experimental: as §2, §3, §6

[6] = water
Experimental: The compounds disclosed herein are finely ground and passed through standard mesh filter and particles with 75-180 micron, and are tested for their solubility and dissolution profile.
The solubility studies for co-crystals and salts were performed according to Higuchi and Connor's method with some variations. Excess amounts (100 mg) of the samples were suspended in 10 mL of water in round bottom flask. Solutions were stirred at 300 rpm using a magnetic stirrer. After 72 h, the suspensions were filtered through a paper filter (Whatman 40)) and filtered aliquots were sufficiently diluted, the absorbance of the samples were measured at 232 nm and the values were normalized for API. […] A standard graph was made by measuring the absorbance of varied concentrations of API in water using a UV spectrophotometer (Nanodrop UV/vis spectrometer) at λmax 232 nm.

[7] = Stability of the co-crystal

| SMILES | % Reduction@ in plasma insulin [1] | 21th day insulin [1] | % Reduction in plasma insulin [1] | Basal insulin [1] | 14th day PG [2] | 14th day TC [2] | 14th day TG [2] | % Red PG, 14th day [2] | % Red TC, 14th day [2] | % Red TG, 14th day [2] | 21st day PG [2] | 21st day TC [2] | 21st day TG [2] | % Red PG, 21st day [2] | % Red TC (plasma cholesterol), 21st day [2] | % Red TG (plasma triglyceride), 21st day [2] | Basal PG [2] | Basal TC [2] | Basal TG [2] | % Reduction in plasma glucose (acute) [3] | further results |
| --- | --- | --- | --- | --- | --- | --- | --- | --- | --- | --- | --- | --- | --- | --- | --- | --- | --- | --- | --- | --- | --- |
| O.O.O=c1c(O)c(-c2ccc(O)c(O)c2)oc2cc(O)cc(O)c12 [ILB-MCO-0904Q, Quercetin dihydrate] | 18% | 2.90 ± 0.33 ng/mL | 0.29 ± 9.87% | 2.94 ± 0.20 ng/mL | 476.41 ± 45.57 mg/dL | 154.43 ± 6.50 mg/dL | 129.08 ± 5.61 mg/dL | −4% | −1% | 8% | 432.69 ± 42.38 mg/dL | 151.25 ± 4.93 mg/dL | 141.99 ± 8.25 mg/dL | 0% | 15% | 21% | 402.50 ± 26.82 mg/dL | 156.25 ± 4.53 mg/dL | 138.00 ± 8.04 mg/dL | 31 ± 4% | effect on plasma glucose levels with acute or chronic administration (in words) ([2]; 300 mg/kg): Did not show significant effect; 3 Hr plasma glucose [3]: 293 ± 65 mg/dL; 0 Hr plasma glucose [3]: 398 ± 67 mg/dL; % Red PG, 21th day 3 hr post dosing [4]: 4%; 21th day 3 hr post dosing PG [4]: 345 ± 41 mg/dL; Final day Body weight [5]: 44.6 ± 1.3 g; % Increase in body weight [5]: 12.2 ± 2.3%; Basal Body weight [5]: 39.1 ± 1.2 g |
| CN(C)C(=N)NC(=N)N.CN(C)C(=N)NC(=N)N.O.O.O=c1c(O)c(-c2ccc(O)c(O)c2)oc2cc(O)cc(O)c12 [ILB-MCO-0905Q, Quercetin dihydrate+Metformin free base co-crystal (1:2)] | 45% | 3.03 ± 0.42 ng/mL | 30.56 ± 8.10 % | 4.55 ± 0.50 ng/mL | 417.71 ± 37.85 mg/dL | 153.68 ± 3.49 mg/dL | 126.70 ± 6.25 mg/dL | 8% | 2% | 8% | 368.96 ± 32.95 mg/dL | 160.25 ± 4.29 mg/dL | 129.66 ± 5.38 mg/dL | 14% | 13% | 27% | 399.40 ± 26.54 mg/dL | 160.42 ± 3.77 mg/dL | 135.94 ± 6.92 mg/dL | 48 ± 4 % | plasma insulin levels after 21 days treatment (in words) ([1]; 21 days, 300 mg/kg, compared to control group): significant reduction; solubility compared with the parent molecule Quercetin ([6]; listed as Quercetin dihydrate-Metformin co-crystal): substantially improved; solubility compared with the parent molecule Quercetin ([6]; listed as Quercetin dihydrate-Metformin co-crystals): greater than the parent molecule; 4 hrs fasting plasma glucose levels after 21 days treatment (in words) ([2]; 300 mg/kg): did not show significant reduction; 3 Hr plasma glucose [3]: 186 ± 21 mg/dL; 0 Hr plasma glucose [3]: 358 ± 34 mg/dL; plasma glucose levels 3 hrs post dosing with single dose (in words) [3]: Significant lowering; also recorded: significant reduction; stability under accelerated conditions ([7]; accelerated conditions): stable; stability monitored once in seven days for 3 months ([7]; desiccated conditions): stable; hygroscopicity ([7]; normal conditions): hygroscopic; plasma glucose levels 3 hrs post dosing after 21 days treatment followed by administration on day 21 (in words) [4]: significant lowering; also recorded: significant reduction; % Red PG, 21th day 3 hr post dosing [4]: 38%; 21th day 3 hr post dosing PG [4]: 225 ± 33 mg/dL; Final day Body weight [5]: 43.7 ± 1 g; % Increase in body weight [5]: 10.1 ± 2.5%; Basal Body weight [5]: 39.2 ± 0.8 g |
| CN(C)C(=N)N=C(N)N [ILB-MCO-0906Q, Metformin hydrochloride] | 28% | 3.82 ± 0.72 ng/mL | 15.32 ± 7.16% | 4.42 ± 0.63 ng/mL | 443.33 ± 40.27 mg/dL | 144.51 ± 4.61 mg/dL | 114.11 ± 4.76 mg/dL | 3% | 6% | 17% | 400.80 ± 42.77 mg/dL | 157.86 ± 8.76 mg/dL | 127.00 ± 5.65 mg/dL | 7% | 11% | 28% | 402.43 ± 26.13 mg/dL | 155.90 ± 5.08 mg/dL | 136.10 ± 5.39 mg/dL | 52 ± 4 % | 4 hrs fasting plasma glucose levels after 21 days treatment (in words) ([2]; 300 mg/kg): did not show significant reduction; 3 Hr plasma glucose [3]: 181 ± 25 mg/dL; 0 Hr plasma glucose [3]: 373 ± 43 mg/dL; plasma glucose levels 3 hrs post dosing with single dose (in words) ([3]; hydrochloride): Significant lowering; also recorded: significant reduction; plasma glucose levels 3 hrs post dosing after 21 days treatment followed by administration on day 21 (in words) ([4]; hydrochloride): significant lowering; also recorded: significant reduction; % Red PG, 21th day 3 hr post dosing [4]: 44%; 21th day 3 hr post dosing PG [4]: 200 ± 31 mg/dL; Final day Body weight [5]: 45.1 ± 0.6 g; % Increase in body weight [5]: 14.5 ± 0.9%; Basal Body weight [5]: 38.5 ± 0.5 g |
